Measured values from patent publication US20230085307A1, “PYRIDAZINONE COMPOUND AND HERBICIDE” (NISSAN CHEMICAL CORPORATION, priority 2019, published 2023).

These compounds were tested on persian speedwell (assay: Test Example 4: herbicidal effect by soil treatment (Table 19, symbol R)). Conditions: amount of applied herbicide 320 g/ha.
Assay type: in vivo, Persian speedwell (Veronica persica)
Summary of the method: (§1)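 Emulsion of test compound, water-diluted to predetermined amount, sprayed on soil after sowing (seed depth ~1.5 cm, sterilized diluvial soil). Greenhouse, 25–30° C. Effect graded at three weeks post-spray.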

SMILES	herbicidal effect rating, R: persian speedwell
Cc1nn(C)c(=O)c(-c2c(-c3ccccc3OC(F)(F)F)sc3ccccc23)c1O [1-030]	5 (Herbicidal rate of 90% or more (almost completely withered))
CCCC(=O)Oc1c(C)nn(C)c(=O)c1-c1c(-c2ccc(C(C)=NOC)cc2)sc2ccccc12 [1-044]	5 (Herbicidal rate of 90% or more (almost completely withered))
Cc1cc(-c2sc3ccccc3c2-c2c(O)c(C)nn(C)c2=O)ccc1F [1-051]	4 (Herbicidal rate of 70% or more and less than 90%)

What follows are compounds tested on green foxtail (assay: Test Example 4: herbicidal effect by soil treatment (Table 19, symbol G)). Conditions: amount of applied herbicide 320 g/ha.
Assay type: in vivo, green foxtail (Setaria viridis)
Summary of the method: as §1

SMILES	herbicidal effect rating, G: green foxtail
Cc1nn(C)c(=O)c(-c2c(-c3ccccc3OC(F)(F)F)sc3ccccc23)c1O [1-030]	4 (Herbicidal rate of 70% or more and less than 90%)
CCCC(=O)Oc1c(C)nn(C)c(=O)c1-c1c(-c2ccc(C(C)=NOC)cc2)sc2ccccc12 [1-044]	4 (Herbicidal rate of 70% or more and less than 90%)
Cc1cc(-c2sc3ccccc3c2-c2c(O)c(C)nn(C)c2=O)ccc1F [1-051]	5 (Herbicidal rate of 90% or more (almost completely withered))

Each compound was assayed on Japanese bulrush (assay: Test Example 2: herbicidal activity, application during weed generation under submerged conditions (Table 17, symbol B)). Conditions: AAH 320 g/ha; application during weed generation, submerged conditions.
Assay type: in vivo, Japanese bulrush (Schoenoplectus juncoides)
Summary of the method: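 In this pot test, flooded alluvial soil (water depth 4 cm) holds all three species sown as a mixture. Once seedlings have one to two leaves, the compound's emulsion, thinned with water to the intended dose, is poured on the water; grading follows after three weeks on the earlier criteria.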

SMILES	herbicidal effect rating, B: Japanese bulrush
Cc1nn(C)c(=O)c(-c2c(-c3ccccc3OC(F)(F)F)sc3ccccc23)c1O [1-030]	3 (Herbicidal rate of 40% or more and less than 70%)
CCCC(=O)Oc1c(C)nn(C)c(=O)c1-c1c(-c2ccc(C(C)=NOC)cc2)sc2ccccc12 [1-044]	3 (Herbicidal rate of 40% or more and less than 70%)
Cc1cc(-c2sc3ccccc3c2-c2c(O)c(C)nn(C)c2=O)ccc1F [1-051]	0 (Herbicidal rate of 5% or less (almost no effect))

What follows are compounds tested on barnyard grass (assay: Test Example 4: herbicidal effect by soil treatment (Table 19, symbol H)). Conditions: amount of applied herbicide 320 g/ha.
Assay type: in vivo, barnyard grass (Echinochloa crus-galli)
Summary of the method: as §1

SMILES	herbicidal effect rating, H: barnyard grass
Cc1nn(C)c(=O)c(-c2c(-c3ccccc3OC(F)(F)F)sc3ccccc23)c1O [1-030]	4 (Herbicidal rate of 70% or more and less than 90%)
CCCC(=O)Oc1c(C)nn(C)c(=O)c1-c1c(-c2ccc(C(C)=NOC)cc2)sc2ccccc12 [1-044]	0 (Herbicidal rate of 5% or less (almost no effect))
Cc1cc(-c2sc3ccccc3c2-c2c(O)c(C)nn(C)c2=O)ccc1F [1-051]	3 (Herbicidal rate of 40% or more and less than 70%)

What follows are compounds tested on chickweed (assay: Test Example 5: herbicidal effect by foliage application, plastic box (Table 20, symbol P)). Conditions: foliage application, 320 g/ha, three weeks after application.
Assay type: in vivo, common chickweed (Stellaria media)
Summary of the method: (§2)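 Post-emergence foliar test in sterilized diluvial soil. Compound applied as water-diluted emulsion at a predetermined rate to 14-day-old plants; evaluation at three weeks.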

SMILES	herbicidal effect grade, P: chickweed
Cc1nn(C)c(=O)c(-c2c(-c3ccccc3OC(F)(F)F)sc3ccccc23)c1O [1-030]	5 (Herbicidal rate of 90% or more (almost completely withered))
CCCC(=O)Oc1c(C)nn(C)c(=O)c1-c1c(-c2ccc(C(C)=NOC)cc2)sc2ccccc12 [1-044]	5 (Herbicidal rate of 90% or more (almost completely withered))
Cc1cc(-c2sc3ccccc3c2-c2c(O)c(C)nn(C)c2=O)ccc1F [1-051]	5 (Herbicidal rate of 90% or more (almost completely withered))

What follows are compounds tested on wild oat (assay: Test Example 4: herbicidal effect by soil treatment (Table 19, symbol I)). Conditions: amount of applied herbicide 320 g/ha.
Assay type: in vivo, wild oat (Avena fatua)
Summary of the method: as §1

SMILES	herbicidal effect rating, I: wild oat
Cc1nn(C)c(=O)c(-c2c(-c3ccccc3OC(F)(F)F)sc3ccccc23)c1O [1-030]	1 (Herbicidal rate of 5% or more and less than 20%)
CCCC(=O)Oc1c(C)nn(C)c(=O)c1-c1c(-c2ccc(C(C)=NOC)cc2)sc2ccccc12 [1-044]	0 (Herbicidal rate of 5% or less (almost no effect))
Cc1cc(-c2sc3ccccc3c2-c2c(O)c(C)nn(C)c2=O)ccc1F [1-051]	0 (Herbicidal rate of 5% or less (almost no effect))

These compounds were tested on chickweed (assay: Test Example 4: herbicidal effect by soil treatment (Table 19, symbol P)). Conditions: amount of applied herbicide 320 g/ha.
Assay type: in vivo, common chickweed (Stellaria media)
Summary of the method: as §1

SMILES	herbicidal effect rating, P: chickweed
Cc1nn(C)c(=O)c(-c2c(-c3ccccc3OC(F)(F)F)sc3ccccc23)c1O [1-030]	5 (Herbicidal rate of 90% or more (almost completely withered))
CCCC(=O)Oc1c(C)nn(C)c(=O)c1-c1c(-c2ccc(C(C)=NOC)cc2)sc2ccccc12 [1-044]	5 (Herbicidal rate of 90% or more (almost completely withered))
Cc1cc(-c2sc3ccccc3c2-c2c(O)c(C)nn(C)c2=O)ccc1F [1-051]	3 (Herbicidal rate of 40% or more and less than 70%)

What follows are compounds tested on redroot pigweed (assay: Test Example 5: herbicidal effect by foliage application, plastic box (Table 20, symbol N)). Conditions: foliage application, 320 g/ha, three weeks after application.
Assay type: in vivo, redroot pigweed (Amaranthus retroflexus)
Summary of the method: as §2

SMILES	herbicidal effect grade, N: redroot pigweed
Cc1nn(C)c(=O)c(-c2c(-c3ccccc3OC(F)(F)F)sc3ccccc23)c1O [1-030]	5 (Herbicidal rate of 90% or more (almost completely withered))
CCCC(=O)Oc1c(C)nn(C)c(=O)c1-c1c(-c2ccc(C(C)=NOC)cc2)sc2ccccc12 [1-044]	5 (Herbicidal rate of 90% or more (almost completely withered))
Cc1cc(-c2sc3ccccc3c2-c2c(O)c(C)nn(C)c2=O)ccc1F [1-051]	5 (Herbicidal rate of 90% or more (almost completely withered))

What follows are compounds tested on lambsquarters (assay: Test Example 4: herbicidal effect by soil treatment (Table 19, symbol O)). Conditions: amount of applied herbicide 320 g/ha.
Assay type: in vivo, lambsquarters (Chenopodium album)
Summary of the method: as §1

SMILES	herbicidal effect rating, O: lambsquarters
Cc1nn(C)c(=O)c(-c2c(-c3ccccc3OC(F)(F)F)sc3ccccc23)c1O [1-030]	5 (Herbicidal rate of 90% or more (almost completely withered))
CCCC(=O)Oc1c(C)nn(C)c(=O)c1-c1c(-c2ccc(C(C)=NOC)cc2)sc2ccccc12 [1-044]	4 (Herbicidal rate of 70% or more and less than 90%)
Cc1cc(-c2sc3ccccc3c2-c2c(O)c(C)nn(C)c2=O)ccc1F [1-051]	4 (Herbicidal rate of 70% or more and less than 90%)

What follows are compounds tested on velvetleaf (assay: Test Example 5: herbicidal effect by foliage application, plastic box (Table 20, symbol M)). Conditions: foliage application, 320 g/ha, three weeks after application.
Assay type: in vivo, velvetleaf (Abutilon theophrasti)
Summary of the method: as §2

SMILES	herbicidal effect grade, M: velvetleaf
Cc1nn(C)c(=O)c(-c2c(-c3ccccc3OC(F)(F)F)sc3ccccc23)c1O [1-030]	5 (Herbicidal rate of 90% or more (almost completely withered))
CCCC(=O)Oc1c(C)nn(C)c(=O)c1-c1c(-c2ccc(C(C)=NOC)cc2)sc2ccccc12 [1-044]	5 (Herbicidal rate of 90% or more (almost completely withered))
Cc1cc(-c2sc3ccccc3c2-c2c(O)c(C)nn(C)c2=O)ccc1F [1-051]	5 (Herbicidal rate of 90% or more (almost completely withered))

These compounds were tested on southern crabgrass (assay: Test Example 4: herbicidal effect by soil treatment (Table 19, symbol F)). Conditions: amount of applied herbicide 320 g/ha.
Assay type: in vivo, southern crabgrass (Digitaria ciliaris)
Summary of the method: as §1

SMILES	herbicidal effect rating, F: southern crabgrass
Cc1nn(C)c(=O)c(-c2c(-c3ccccc3OC(F)(F)F)sc3ccccc23)c1O [1-030]	5 (Herbicidal rate of 90% or more (almost completely withered))
CCCC(=O)Oc1c(C)nn(C)c(=O)c1-c1c(-c2ccc(C(C)=NOC)cc2)sc2ccccc12 [1-044]	2 (Herbicidal rate of 20% or more and less than 40%)
Cc1cc(-c2sc3ccccc3c2-c2c(O)c(C)nn(C)c2=O)ccc1F [1-051]	4 (Herbicidal rate of 70% or more and less than 90%)

The compounds below were run on Italian ryegrass (assay: Test Example 5: herbicidal effect by foliage application, plastic box (Table 20, symbol K)). Conditions: foliage application, 320 g/ha, three weeks after application.
Assay type: in vivo, Italian ryegrass (Lolium multiflorum)
Summary of the method: as §2

SMILES	herbicidal effect grade, K: Italian ryegrass
Cc1nn(C)c(=O)c(-c2c(-c3ccccc3OC(F)(F)F)sc3ccccc23)c1O [1-030]	4 (Herbicidal rate of 70% or more and less than 90%)
CCCC(=O)Oc1c(C)nn(C)c(=O)c1-c1c(-c2ccc(C(C)=NOC)cc2)sc2ccccc12 [1-044]	4 (Herbicidal rate of 70% or more and less than 90%)
Cc1cc(-c2sc3ccccc3c2-c2c(O)c(C)nn(C)c2=O)ccc1F [1-051]	3 (Herbicidal rate of 40% or more and less than 70%)

What follows are compounds tested on windgrass (assay: Test Example 5: herbicidal effect by foliage application, plastic box (Table 20, symbol L)). Conditions: foliage application, 320 g/ha, three weeks after application.
Assay type: in vivo, windgrass (Apera spica-venti)
Summary of the method: as §2

SMILES	herbicidal effect grade, L: windgrass
Cc1nn(C)c(=O)c(-c2c(-c3ccccc3OC(F)(F)F)sc3ccccc23)c1O [1-030]	5 (Herbicidal rate of 90% or more (almost completely withered))
CCCC(=O)Oc1c(C)nn(C)c(=O)c1-c1c(-c2ccc(C(C)=NOC)cc2)sc2ccccc12 [1-044]	3 (Herbicidal rate of 40% or more and less than 70%)
Cc1cc(-c2sc3ccccc3c2-c2c(O)c(C)nn(C)c2=O)ccc1F [1-051]	4 (Herbicidal rate of 70% or more and less than 90%)

The compounds below were run on oval-leafed pondweed (assay: Test Example 1: herbicidal activity, application before weed generation under submerged conditions (Table 16, symbol C)). Conditions: 320 g/ha applied herbicide.
Assay type: in vivo, oval-leafed pondweed (Monochoria vaginalis)
Summary of the method: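 Alluvial soil was flooded to 4 cm depth, weed seeds were sown mixed and 2.5-leaf rice seedlings were transplanted. On sowing day, the compound's emulsion, diluted in water to a set dose, was applied to the water surface. Plants grew at 25–30 °C and were scored 0–5 after three weeks.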

SMILES	Herbicidal effect on C: oval-leafed pondweed (grade 0-5)
Cc1nn(C)c(=O)c(-c2c(-c3ccccc3OC(F)(F)F)sc3ccccc23)c1O [1-030]	4 (Herbicidal rate of 70% or more and less than 90%)
CCCC(=O)Oc1c(C)nn(C)c(=O)c1-c1c(-c2ccc(C(C)=NOC)cc2)sc2ccccc12 [1-044]	5 (Herbicidal rate of 90% or more (almost completely withered))
Cc1cc(-c2sc3ccccc3c2-c2c(O)c(C)nn(C)c2=O)ccc1F [1-051]	0 (Herbicidal rate of 5% or less (almost no effect))

What follows are compounds tested on blackgrass (assay: Test Example 4: herbicidal effect by soil treatment (Table 19, symbol J)). Conditions: amount of applied herbicide 320 g/ha.
Assay type: in vivo, blackgrass (Alopecurus myosuroides)
Summary of the method: as §1

SMILES	herbicidal effect rating, J: blackgrass
Cc1nn(C)c(=O)c(-c2c(-c3ccccc3OC(F)(F)F)sc3ccccc23)c1O [1-030]	1 (Herbicidal rate of 5% or more and less than 20%)
CCCC(=O)Oc1c(C)nn(C)c(=O)c1-c1c(-c2ccc(C(C)=NOC)cc2)sc2ccccc12 [1-044]	0 (Herbicidal rate of 5% or less (almost no effect))
Cc1cc(-c2sc3ccccc3c2-c2c(O)c(C)nn(C)c2=O)ccc1F [1-051]	0 (Herbicidal rate of 5% or less (almost no effect))

Each compound was assayed on lambsquarters (assay: Test Example 5: herbicidal effect by foliage application, plastic box (Table 20, symbol O)). Conditions: foliage application, 320 g/ha, three weeks after application.
Assay type: in vivo, lambsquarters (Chenopodium album)
Summary of the method: as §2

SMILES	herbicidal effect grade, O: lambsquarters
Cc1nn(C)c(=O)c(-c2c(-c3ccccc3OC(F)(F)F)sc3ccccc23)c1O [1-030]	5 (Herbicidal rate of 90% or more (almost completely withered))
CCCC(=O)Oc1c(C)nn(C)c(=O)c1-c1c(-c2ccc(C(C)=NOC)cc2)sc2ccccc12 [1-044]	4 (Herbicidal rate of 70% or more and less than 90%)
Cc1cc(-c2sc3ccccc3c2-c2c(O)c(C)nn(C)c2=O)ccc1F [1-051]	3 (Herbicidal rate of 40% or more and less than 70%)

What follows are compounds tested on velvetleaf (assay: Test Example 4: herbicidal effect by soil treatment (Table 19, symbol M)). Conditions: amount of applied herbicide 320 g/ha.
Assay type: in vivo, velvetleaf (Abutilon theophrasti)
Summary of the method: as §1

SMILES	herbicidal effect rating, M: velvetleaf
Cc1nn(C)c(=O)c(-c2c(-c3ccccc3OC(F)(F)F)sc3ccccc23)c1O [1-030]	3 (Herbicidal rate of 40% or more and less than 70%)
CCCC(=O)Oc1c(C)nn(C)c(=O)c1-c1c(-c2ccc(C(C)=NOC)cc2)sc2ccccc12 [1-044]	0 (Herbicidal rate of 5% or less (almost no effect))
Cc1cc(-c2sc3ccccc3c2-c2c(O)c(C)nn(C)c2=O)ccc1F [1-051]	4 (Herbicidal rate of 70% or more and less than 90%)
